The values that follow come from article PMC9407656 (Proceedings of the National Academy of Sciences of the …, 2022).

The subject of one assay is adult B. malayi worms. Description: Adult B. malayi worm motility. As to conditions: for recovery from the motility paralysis: treated adult worms; for pIC50, inhibition of motility / IC50: 24 h exposure; for IC50: read-out: IC50, inhibition of motility. It counts as cell-based, Brugia malayi.
The target in a further assay is T1, B. malayi AVR-14B GluCl (Brugia malayi, UniProt A0A0K0J2Q9).
T1 sequence (A0A0K0J2Q9 19-427): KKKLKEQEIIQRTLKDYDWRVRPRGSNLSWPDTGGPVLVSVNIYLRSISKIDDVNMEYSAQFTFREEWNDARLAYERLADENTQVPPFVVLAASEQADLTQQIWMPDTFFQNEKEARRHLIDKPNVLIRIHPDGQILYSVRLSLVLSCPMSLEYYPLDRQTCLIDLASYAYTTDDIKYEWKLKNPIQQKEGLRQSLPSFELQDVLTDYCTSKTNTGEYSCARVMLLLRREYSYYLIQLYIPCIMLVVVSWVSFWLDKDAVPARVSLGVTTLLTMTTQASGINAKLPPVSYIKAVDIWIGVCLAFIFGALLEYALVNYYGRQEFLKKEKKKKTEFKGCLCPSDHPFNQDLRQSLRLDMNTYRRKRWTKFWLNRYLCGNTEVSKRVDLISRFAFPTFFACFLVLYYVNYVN
Description: Two-electrode voltage-clamp on Xenopus laevis oocytes expressing Bma-AVR-14B. The following applies: for agonist activity (in words): tested at 1 mM; for direct activation as agonist (in words): 0.3 to 100 µM; for L-glutamate-mediated current response (mean ± SEM) / activation at 1000 µM / activation at 10000 µM: normalized to 10 mM L-glutamate.

For assay [1], the system named is C. oncophora IVS AVR-14/GluClα3. The following applies: IVM-sensitive strain; SI table ref 5; cited from earlier work.
The subject of assay [2] is C. oncophora IVR AVR-14/GluClα3. As to conditions: IVM-resistant strain; SI table ref 5; cited from earlier work.
Assay [3] has as its system H. contortus AVR-14B/GluClα3B. The following applies: SI table ref 3, cited from earlier work.
Assay [4] relates to C. elegans AVR-14B/GluClα3B. As to conditions: cited from earlier work.
The subject of assay [5] is D. immitis AVR-14B/GluClα3B. As to conditions: cited from earlier work.
For a further assay, the system named is B. malayi. As to conditions: cited from earlier work; for gradual recovery from the paralytic effects: treated worms.
[6] abbreviates: peak current normalized to 30 mM L-glutamate.
Where [7] appears, read: coapplied with 30 mM L-glutamate.
The mark [8] stands for this setting: read-out: IC50(female), motility, female B. malayi.

Several values for one entry are separate records, joined by “and”; a condition that tells them apart may be missing. Identical values can stand only once. Like-named read-outs stand apart in the source and are kept apart here. A value given as a limit tells only on which side of the number the result lay.

For `C/C(=C\C=C\[C@]1(C)[C@@H](O)CC[C@@]2(C)[C@H]1CC[C@H]1Cc3c([nH]c4cc5c(cc34)C3=CC(C)(C)OC(C)(C)[C@H]3C5)[C@@]12C)C(=O)O` [NA, Nodulisporic acid], the “exposure required to produce a reduction in worm motility similar to IVM” value with adult B. malayi worms (adult worms) was greater than 3 days. For the same molecule, in the assay on adult B. malayi worms, the “recovery from the motility paralysis” value is “do not show any sign of recovery”. Moreover, the EC50 is 2.7 µM at B. malayi AVR-14B GluCl (EC50, direct activation (agonist), normalized to 30 mM L-glutamate) and 2.51 µM at B. malayi AVR-14B GluCl (pEC50, direct activation, peak current normalized to 30 mM L-glutamate). Also, the “nH, potentiation (PAM) of L-glutamate response” value on B. malayi AVR-14B GluCl (in the presence of 30 µM L-glutamate) was 0.8 ± 0.4. In addition, at B. malayi AVR-14B GluCl (in the presence of NA), the “increase in the mean AUC response of L-glutamate” value is “approximately sevenfold increase”. Further, at B. malayi AVR-14B GluCl (setting [6]), the “nH (Hill coefficient), direct activation” value was 1.6 ± 0.8.

As for `N[C@@H](CC(=O)O)C(=O)O` [L-aspartate], at B. malayi AVR-14B GluCl, the “agonist activity (in words)” value was “failed to induce any measurable channel activity”.

On to `NCCCC(=O)O` [GABA, γ-amino butyric acid], for which the “agonist activity (in words)” value at B. malayi AVR-14B GluCl is “inactive”.

picrotoxin [PTX]: the “inhibition of the glutamate response” value against B. malayi AVR-14B GluCl (100 µM, 30 mM L-glutamate) is “failed to completely block”. The “direct activation as agonist (in words)” value at B. malayi AVR-14B GluCl is “failed to produce direct activation”. Further, at B. malayi AVR-14B GluCl (setting [7]), the “nH, inhibition of L-glutamate-gated current” value is reported as −1.2 ± 0.6 and the “pIC50, inhibition of L-glutamate-gated current” value is given as 4.5 ± 0.2. Besides, on B. malayi AVR-14B GluCl (read-out: IC50, inhibition of L-glutamate-gated current, coapplied with 30 mM L-glutamate), the IC50 is 33.1 µM.

Turning to `CC[C@H](C)[C@H]1O[C@]2(CC[C@@H]1C)C[C@@H]1C[C@@H](C/C=C(\C)[C@@H](O[C@H]3C[C@H](OC)[C@@H](O[C@H]4C[C@H](OC)[C@@H](O)[C@H](C)O4)[C@H](C)O3)[C@@H](C)/C=C/C=C3\CO[C@@H]4[C@H](O)C(C)=C[C@@H](C(=O)O1)[C@]34O)O2` [IVM, ivermectin], the “pIC50, inhibition of motility” value in the assay on adult B. malayi worms (adult female worms) worked out at 5.9 ± 0.4; in the assay with adult B. malayi worms (adult male worms) it was 4.9 ± 0.2. The results for the IC50 with adult B. malayi worms (adult female worms) and with adult B. malayi worms (adult male worms) were 1.1 µM and 11.6 µM, respectively. In addition, in the assay on adult B. malayi worms, the “recovery from the motility paralysis” value is reported as “do not show any sign of recovery”. Moreover, the results for the 50% effective concentration (EC50) in assay [1], in assay [2] and in assay [3] (read-out: estimated EC50) were 0.5 µM, 1.3 µM and roughly 0.0001 µM, respectively. The “direct activation of receptor (in words)” value at B. malayi AVR-14B GluCl (1 pM IVM) was “did not activate the Bma-AVR-14B receptor directly”. In addition, the “effect on NA-mediated effects (in words)” value on B. malayi AVR-14B GluCl (0.1 nM IVM, NA with 30 µM L-glutamate) is given as “eliminated the agonist as well as PAM effects of NA”. The “L-glutamate-mediated current response (mean ± SEM)” value is on record as 1.3 ± 0.3% at B. malayi AVR-14B GluCl (100 µM L-glutamate in the presence of 0.1 nM IVM); 34.2 ± 7.5% at B. malayi AVR-14B GluCl (1 mM L-glutamate in the presence of 0.01 nM IVM); 4.0 ± 0.6% on B. malayi AVR-14B GluCl (1 mM L-glutamate in the presence of 0.1 nM IVM); 70.3 ± 7.9% on B. malayi AVR-14B GluCl (10 mM L-glutamate in the presence of 0.01 nM IVM); 7.7 ± 0.7% on B. malayi AVR-14B GluCl (10 mM L-glutamate in the presence of 0.1 nM IVM). Further, the “nH (Hill coefficient), direct activation” value at B. malayi AVR-14B GluCl (setting [6]) is 0.3 ± 0.1 and 0.3 ± 0.2. On B. malayi AVR-14B GluCl (setting [6]), the “pEC50, direct activation” value is given as 8.7 ± 1.2.

For `CN[C@H](CC(=O)O)C(=O)O` [NMDA, N-methyl-D-aspartic acid], at B. malayi AVR-14B GluCl, the “agonist activity (in words)” value is reported as “failed to induce any measurable channel activity”.

As to `C=C(C)[C@H]1CN[C@H](C(=O)O)[C@H]1CC(=O)O` [kainate], the “agonist activity (in words)” value at B. malayi AVR-14B GluCl is recorded as “failed to induce any measurable channel activity”.

For `N#Cc1nn(-c2c(Cl)cc(C(F)(F)F)cc2Cl)c(N)c1[S+]([O-])C(F)(F)F` (stereo not shown) [FIP, fipronil], the “direct activation as agonist (in words)” value on B. malayi AVR-14B GluCl is recorded as “failed to produce direct activation”. Moreover, the IC50 on B. malayi AVR-14B GluCl (IC50, inhibition of L-glutamate-gated current, coapplied with 30 mM L-glutamate) is 1.8 µM; against B. malayi AVR-14B GluCl (pIC50, inhibition of L-glutamate-gated current, coapplied with 30 mM L-glutamate) it was 2 µM. On B. malayi AVR-14B GluCl (setting [7]), the “nH, inhibition of L-glutamate-gated current” value is given as −1.3 ± 0.4. For the same molecule, the inhibition at 100 µM on B. malayi AVR-14B GluCl (read-out: inhibition of the glutamate response) was roughly 95%.

Consider `N[C@@H](Cn1oc(=O)[nH]c1=O)C(=O)O` [quisqualate], for which the “agonist activity (in words)” value at B. malayi AVR-14B GluCl was “failed to induce any measurable channel activity”.

Regarding `NCC(=O)O` [Glycine, glycine], on B. malayi AVR-14B GluCl, the “agonist activity (in words)” value was “inactive”.

Turning to `Cc1onc(O)c1CC(N)C(=O)O` (stereo not drawn) [AMPA, α-amino-3-hydroxy-5-methyl-4-isoxazolepropionic acid], on B. malayi AVR-14B GluCl, the “agonist activity (in words)” value was “failed to induce any measurable channel activity”.

Consider `N[C@@H](CCC(=O)O)C(=O)O` [L-glutamate], for which the EC50 in assay [4] was 2200 µM; in assay [5], roughly 1000 µM; in assay [1], 29.7 µM; in assay [2], 96.1 µM; in assay [3], 27.6 µM. Moreover, the “time constant of desensitization (τ)” value at B. malayi AVR-14B GluCl (3 µM L-glutamate) was 1.3 ± 0.3 s; on B. malayi AVR-14B GluCl (30 mM L-glutamate) it was 0.6 ± 0.1 s. The “reversal potential (Erev) of glutamate-gated currents” value at B. malayi AVR-14B GluCl (1 mM L-glutamate, −80 to +20 mV) was −28.9 ± 2.9 mV. Also, the “nH (Hill coefficient), direct activation” value on B. malayi AVR-14B GluCl (setting [6]) is reported as 0.8 ± 0.3. In addition, the activation at 1000 µM is 54.3 ± 9.2% at B. malayi AVR-14B GluCl (read-out: L-glutamate-mediated current response (mean ± SEM), 1 mM L-glutamate alone, 0.01 nM IVM experiment) and 52.8 ± 3.3% on B. malayi AVR-14B GluCl (read-out: L-glutamate-mediated current response (mean ± SEM), 1 mM L-glutamate alone, 0.1 nM IVM experiment). Moreover, the activation at 10000 µM on B. malayi AVR-14B GluCl (read-out: L-glutamate-mediated current response (mean ± SEM), 10 mM L-glutamate alone, 0.01 nM IVM experiment) was found to be 100%; on B. malayi AVR-14B GluCl (read-out: L-glutamate-mediated current response (mean ± SEM), 10 mM L-glutamate alone, 0.1 nM IVM experiment), 100%.

Turning to `CCN(CC)C(=O)N1CCN(C)CC1` [DEC, diethylcarbamazine], the IC50 with B. malayi (read-out: IC50, motility, B. malayi) is 4.4 µM. Further, in the assay with B. malayi, the “gradual recovery from the paralytic effects” value was 3 to 4 h.

As for `CC(C)C[C@H]1C(=O)O[C@H](Cc2ccc(N3CCOCC3)cc2)C(=O)N(C)[C@@H](CC(C)C)C(=O)O[C@H](C)C(=O)N(C)[C@@H](CC(C)C)C(=O)O[C@H](Cc2ccc(N3CCOCC3)cc2)C(=O)N(C)[C@@H](CC(C)C)C(=O)O[C@H](C)C(=O)N1C` [emodepside], the 50% inhibitory concentration (IC50) with B. malayi (setting [8]) is 0.801 µM; in the assay with B. malayi (read-out: IC50(male), motility, male B. malayi) it was 0.176 µM.

Take `c1ccc([C@H]2CN3CCSC3=N2)cc1` [levamisole]: in the assay with B. malayi (setting [8]), the half-maximal inhibitory concentration (IC50) was 0.01 µM. Moreover, in the assay on B. malayi, the “gradual recovery from the paralytic effects” value was 3 to 4 h.

For `N[C@H](C(=O)O)c1cc(O)no1` [ibotenate], the “normalized current response to agonist (mean ± SEM)” value on B. malayi AVR-14B GluCl (agonist 1 mM, normalized to 1 mM L-glutamate response) stood at 73.4 ± 2.5%.
